According to patent publication US5945508A, “Substance P treatment for immunostimulation” (priority 1997, dated 1999):
Like-named read-outs stand apart in the source and are kept apart here.

What was measured:
Spleen B Cell = test: Mitogenesis of spleen B cells, LP-BM5 mouse AIDS model; type: in vivo, C57BL6 mice
Procedure: (§1) C57BL6 mice, average weight of 25-30 grams, were infected with the LP-BM5 murine leukemia retrovirus to simulate the human AIDS virus. […] The mice were divided into two groups; LP-BM5 virus only and LP-BM5 virus+substance P aerosol therapy at 1 μM concentration. The mice were killed at 4 and 8 weeks postinoculation.
The proliferation of splenic B and T cells induced by mitogens was determined by incorporation of radioactive thymidine. Splenocytes in 0.1 ml of cell culture medium (1×10 ^7 cells/ml) were cultured in 96-well flat-bottom cultured plates with ConA and lipopolysaccharide, 5 micrograms/ml). The cells were incubated at 37° C., 5% CO2 incubator for 72 hours for ConA-induced T cell proliferation, and then pulsed with ^3 H-thymidine (1 microCurie/well). After 4 hours for radioactive thymidine uptake, the cells were harvested by a cell sample harvester. Radioactivity was determined by a liquid scintillation counter (Tri-Carb, 2200CA). The T and B cell mitogenesis values were recorded as counts per min in 1×10^7 cells/ml.

interferon-gamma = test: Spleen cytokine ELISA, LP-BM5 mouse AIDS model; type: in vivo, C57BL6 mice; conditions: SP aerosol 1 μM
Procedure: as §1
(§2) Spleen cytokine assays for interleukin-6 and interferon-gamma were conducted by standard mouse ELISA assays. The antibodies for IL-6 and interferon-gamma were purchased from Genzyme, Inc. and Collaborative Research, respectively. Briefly, flat bottom polyvinylchloride 96-well enzyme immunoassay plates were coated with […] monoclonal antibody in 0.05 ml bicarbonate buffer (pH 9.6) to each cytokine. After washing in phosphate-buffered saline containing 0.05% (v/v) Tween-20, plates were incubated in blocking reagent (1% bovine serum albumin in buffer). For the standard curves for each cytokine assay, serial dilutions of recombinant cytokine were added to a set of wells from anti-cytokine coated plates. After two hours at room temperature and three subsequent washings, biotinylated-anti-cytokine will be added to respective wells diluted 1:500 in blocking reagent. All plates were then incubated for an additional two hours at room temperature, washed three times, then […] of 1:5000 avidin-peroxidase was added. After an additional 3 washes, […] of the substrate mixture was added to each well (ABTS plus hydrogen peroxide solution). After an incubation at room temperature for 10-15 minutes, stopping reagent ([…] of a 12 g NaOH in 50 ml water solution) was added. Readings were taken at 405 nm with 490 nm reference using a microELISA spectrophotometric plate reader. Values of interluekin-6 and interferon-gamma were expressed as nanograms/ml.

interleukin-6 = test: Spleen cytokine ELISA, LP-BM5 mouse AIDS model; type: in vivo, C57BL6 mice; conditions: SP aerosol 1 μM
Procedure: as §1, §2

immune system organs = test: Organ weight and total cell recovery; type: in vivo, C57B16 mice; design: Spleen Cell Number / Thymus Cell Number / LN Cell Number / BM Cell Number: scale not given here; Spleen Weight / Thymus Weight: unit not given here
Procedure: At 24 hours after the last exposure, the animals were sacrificed and the effects of exposure on the immune system examined. Immune organs (spleen, thymus, blood, lymph nodes and bone marrow) were recovered and analyzed for effects on organ weight, total cell numbers, immune cell populations (by differentials), and lymphocyte subpopulations (by flow cytometry). Assays were also performed to examine the effects of exposure on immune function. […] Similar effects on immune cell subpopulations were also observed in lymph nodes. In the thymus it appeared that the immature CD4^+ CD8^+ cells were differentially lost due to exposure. […] However, these effects are prevented or ameliorated by treatment of the animals with Substance P.
For each of the immune system organs (spleen, lymph nodes and thymus) the wet weight is determined after removal using a microbalance. After processing of the organs into single cell suspensions the cell numbers and viabilities are determined using trypan blue staining. Histochemical differentials are performed at this time. Cell numbers and viabilities are again determined after centrifugation of the cell suspensions through density gradients to obtain mononuclear cells.

[1] = system: murine melanoma B16 cancer cells; conditions: 1×10^5 B16 cells, mean (SEM)
Procedure: The mice were infected with 1×10^5 murine melanoma B16 cancer cells by tail vein injection. […] The second group of mice was treated with the same SP dose starting at one week post-injection for seven days. Survival was assessed to determine the effect of SP aerosol therapy in prolonging life when mice are challenged with a massive cancer challenge.

[2] = 8 weeks post-infection with LP-BM5
[3] = JP-8 1000 mg/m^3 + SP, nSP (1 nM), CP or RP

Substance P [SP] was tested, and the “Spleen B Cell Mitogenesis” value (Spleen B Cell; 4 weeks after LP-BM5 infection, SP aerosol 1 μM 3 days/week, 25 Hours in Culture) was 2063 (448) counts per min, the “Spleen B Cell Mitogenesis” value (Spleen B Cell; 4 weeks after LP-BM5 infection, SP aerosol 1 μM 3 days/week, 48 Hours in Culture) was 1369 (231) counts per min and the “Spleen B Cell Mitogenesis” value (Spleen B Cell; 4 weeks after LP-BM5 infection, SP aerosol 1 μM 3 days/week, 72 Hours in Culture) was 1642 (158) counts per min. The “Spleen B Cell Mitogenesis” value (Spleen B Cell; 8 weeks post-infection with LP-BM5, SP aerosol 1 μM, 72 hours in culture) was 3227 (854) counts per min, the “Spleen Cytokine Production Interferon-Gamma” value (interferon-gamma; 4 weeks after LP-BM5 infection) was 1.5188 (0.21) nanogram/ml and the “Spleen Cytokine Production Interferon-Gamma” value (interferon-gamma; [2]) was 1.072 (0.09) nanogram/ml. For the same substance, the “Spleen Cytokine Production Interleukin-6” value (interleukin-6; 4 weeks after LP-BM5 infection) was 0.1334 (0.02) nanogram/ml, the “Spleen Cytokine Production Interleukin-6” value (interleukin-6; [2]) was 0.1480 (0.02) nanogram/ml and the “BM Cell Number” value (immune system organs; JP-8 250 mg/m^3 + SP) was 23. For the same substance, the “LN Cell Number” value (immune system organs; JP-8 250 mg/m^3 + SP) was 10.8, the “Spleen Cell Number” value (immune system organs; JP-8 250 mg/m^3 + SP) was 40 and the “Spleen Weight” value (immune system organs; JP-8 250 mg/m^3 + SP) was 0.16. The “Thymus Cell Number” value (immune system organs; JP-8 250 mg/m^3 + SP) was 70, the “Thymus Weight” value (immune system organs; JP-8 250 mg/m^3 + SP) was 0.06 and the “BM Cell Number” value (immune system organs; [3]) was 21. The “LN Cell Number” value (immune system organs; [3]) was 5.0, the “Spleen Cell Number” value (immune system organs; [3]) was 72 and the “Spleen Weight” value (immune system organs; [3]) was 0.14. For the same substance, the “Thymus Cell Number” value (immune system organs; [3]) was 78, the “Thymus Weight” value (immune system organs; [3]) was 0.11 and the “BM Cell Number” value (immune system organs; JP-8 2500 mg/m^3 + SP) was 19. The “LN Cell Number” value (immune system organs; JP-8 2500 mg/m^3 + SP) was 5.0, the “Spleen Cell Number” value (immune system organs; JP-8 2500 mg/m^3 + SP) was 87 and the “Spleen Weight” value (immune system organs; JP-8 2500 mg/m^3 + SP) was 0.10. The “Thymus Cell Number” value (immune system organs; JP-8 2500 mg/m^3 + SP) was 96, the “Thymus Weight” value (immune system organs; JP-8 2500 mg/m^3 + SP) was 0.08 and the “reversal of effects of JP-8 exposure on the immune system” value (immune system organs; Substance P at both 1 uM and 1 nM doses) was “significantly reversed”. The “BM Cell Number” value (immune system organs; dose 0 (no JP-8) + SP or CP) was 9, the “Spleen Cell Number” value (immune system organs; dose 0 (no JP-8) + SP or CP) was 30 and the “Spleen Weight” value (immune system organs; dose 0 (no JP-8) + SP or CP) was 0.10. The “Thymus Cell Number” value (immune system organs; dose 0 (no JP-8) + SP or CP) was 18, the “Thymus Weight” value (immune system organs; dose 0 (no JP-8) + SP or CP) was 0.04 and the “Days alive after B16 cells” value ([1]; 1 μM SP aerosol 15 min/day 7 days starting immediately) was 31.5 (3.8) Days. The “Days alive after B16 cells” value ([1]; SP aerosol 7 days starting one week after B16 cells) was 26.0 (2.0) Days.
